Reference: patent publication US8809331B2 (Genentech, Inc., priority 2011, dated 2014)

What follows are molecules tested against T1, LRRK2 (Homo sapiens, UniProt Q5S007, G2019S) (assay: In Vitro LRRK2 LabChip Assay (LRRK2 Ki)). Conditions: Table 5 compounds (formula I).
T1 construct: purchased Invitrogen PV4882
Type: biochemical

T1 sequence (Q5S007 whole entry G2019S): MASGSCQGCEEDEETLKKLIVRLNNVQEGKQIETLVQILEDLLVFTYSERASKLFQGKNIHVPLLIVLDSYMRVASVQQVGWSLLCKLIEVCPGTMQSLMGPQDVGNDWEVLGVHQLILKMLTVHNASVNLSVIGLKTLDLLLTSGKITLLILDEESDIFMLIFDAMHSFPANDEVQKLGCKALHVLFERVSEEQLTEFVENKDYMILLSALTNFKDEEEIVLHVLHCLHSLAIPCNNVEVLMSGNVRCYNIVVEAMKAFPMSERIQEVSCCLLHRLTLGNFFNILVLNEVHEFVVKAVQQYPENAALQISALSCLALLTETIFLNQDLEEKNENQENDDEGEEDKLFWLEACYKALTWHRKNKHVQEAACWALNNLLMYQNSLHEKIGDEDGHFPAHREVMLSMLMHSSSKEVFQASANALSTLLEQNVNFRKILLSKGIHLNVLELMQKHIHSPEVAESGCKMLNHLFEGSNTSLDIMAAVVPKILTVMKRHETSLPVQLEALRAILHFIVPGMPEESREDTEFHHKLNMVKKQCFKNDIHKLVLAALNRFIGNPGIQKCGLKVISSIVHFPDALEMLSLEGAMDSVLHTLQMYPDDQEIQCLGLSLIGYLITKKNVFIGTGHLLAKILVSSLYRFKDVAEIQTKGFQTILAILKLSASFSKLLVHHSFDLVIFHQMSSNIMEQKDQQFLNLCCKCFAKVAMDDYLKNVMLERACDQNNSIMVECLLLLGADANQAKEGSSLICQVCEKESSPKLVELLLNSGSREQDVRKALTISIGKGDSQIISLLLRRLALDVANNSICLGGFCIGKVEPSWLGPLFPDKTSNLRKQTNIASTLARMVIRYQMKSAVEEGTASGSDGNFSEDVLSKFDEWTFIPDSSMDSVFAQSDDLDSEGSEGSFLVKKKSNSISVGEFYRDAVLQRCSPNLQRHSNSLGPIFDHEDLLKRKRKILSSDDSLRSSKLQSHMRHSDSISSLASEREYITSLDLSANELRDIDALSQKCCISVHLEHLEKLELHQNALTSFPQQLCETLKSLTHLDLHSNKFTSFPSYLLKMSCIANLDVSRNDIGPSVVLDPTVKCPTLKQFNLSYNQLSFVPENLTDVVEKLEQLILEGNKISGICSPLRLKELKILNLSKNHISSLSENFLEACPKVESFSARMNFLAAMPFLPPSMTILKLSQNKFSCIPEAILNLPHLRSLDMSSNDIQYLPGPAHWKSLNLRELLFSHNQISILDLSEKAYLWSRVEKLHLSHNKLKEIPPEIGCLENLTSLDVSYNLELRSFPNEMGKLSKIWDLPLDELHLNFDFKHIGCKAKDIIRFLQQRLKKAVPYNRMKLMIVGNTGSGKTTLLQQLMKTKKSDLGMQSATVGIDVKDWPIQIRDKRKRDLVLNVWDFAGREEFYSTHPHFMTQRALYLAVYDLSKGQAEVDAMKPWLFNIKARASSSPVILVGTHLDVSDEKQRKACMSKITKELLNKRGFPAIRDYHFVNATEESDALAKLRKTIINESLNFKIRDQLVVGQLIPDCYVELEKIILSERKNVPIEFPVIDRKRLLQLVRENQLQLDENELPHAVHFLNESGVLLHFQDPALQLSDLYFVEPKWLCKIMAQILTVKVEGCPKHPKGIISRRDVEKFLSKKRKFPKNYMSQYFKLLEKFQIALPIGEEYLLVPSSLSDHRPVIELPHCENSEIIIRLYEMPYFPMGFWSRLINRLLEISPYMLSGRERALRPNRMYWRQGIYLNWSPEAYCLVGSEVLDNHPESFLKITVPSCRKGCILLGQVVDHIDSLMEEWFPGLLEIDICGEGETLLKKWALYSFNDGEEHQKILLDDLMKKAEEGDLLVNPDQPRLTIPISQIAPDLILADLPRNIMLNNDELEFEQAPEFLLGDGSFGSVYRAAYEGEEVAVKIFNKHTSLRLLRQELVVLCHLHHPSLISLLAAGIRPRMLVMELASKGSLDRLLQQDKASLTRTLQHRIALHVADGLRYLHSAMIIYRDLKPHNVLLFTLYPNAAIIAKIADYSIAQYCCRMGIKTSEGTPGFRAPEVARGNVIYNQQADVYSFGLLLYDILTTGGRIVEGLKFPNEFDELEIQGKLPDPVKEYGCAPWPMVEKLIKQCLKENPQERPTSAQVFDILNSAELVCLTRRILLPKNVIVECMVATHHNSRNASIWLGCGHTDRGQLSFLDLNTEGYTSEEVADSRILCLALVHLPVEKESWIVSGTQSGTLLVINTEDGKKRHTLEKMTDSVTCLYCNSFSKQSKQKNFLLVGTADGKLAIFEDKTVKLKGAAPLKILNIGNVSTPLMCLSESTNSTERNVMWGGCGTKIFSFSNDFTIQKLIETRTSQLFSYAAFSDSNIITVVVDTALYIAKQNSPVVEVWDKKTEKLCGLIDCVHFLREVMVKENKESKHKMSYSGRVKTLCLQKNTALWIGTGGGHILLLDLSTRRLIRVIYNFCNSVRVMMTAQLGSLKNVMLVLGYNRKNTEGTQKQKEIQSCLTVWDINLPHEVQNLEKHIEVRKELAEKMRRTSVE

Ki [nM] | Molecule
0.685 | CNc1nc(Nc2cc(C)c(C(=O)N3CCCC3)cc2OCF)ncc1C(F)(F)F [Compound 101, [5-Fluoromethoxy-2-methyl-4-(4-methylamino-5-trifluoromethyl-pyrimidin-2-ylamino)-phenyl]-pyrrolidin-1-yl-methanone]
708 | O=C(c1cc(Cl)c(Nc2ncc(C(F)(F)F)c(NC3CC3)n2)cc1OCF)N1CCOCC1 [Compound 102, [5-Chloro-4-(4-cyclopropylamino-5-trifluoromethyl-pyrimidin-2-ylamino)-2-fluoromethoxy-phenyl]-morpholin-4-yl-methanone]
1.23 | CCNc1nc(Nc2cc(C)c(C(=O)N3CCOCC3)cc2F)ncc1C(F)(F)F [Compound 103, [4-(4-Ethylamino-5-trifluoromethyl-pyrimidin-2-ylamino)-5-fluoro-2-methyl-phenyl]-morpholin-4-yl-methanone]
0.342 | [2H]C1([2H])OC([2H])([2H])C([2H])([2H])N(C(=O)c2cc(OC)c(Nc3ncc(C(F)(F)F)c(NC)n3)cc2C)C1([2H])[2H] [Compound 104, (5-methoxy-2-methyl-4-(4-(methylamino)-5-(trifluoromethyl)pyrimidin-2-ylamino)phenyl)(perdeuteromorpholino)methanone]
0.31 | CCNc1nc(Nc2cc(C)c(C(=O)NCC(C)(C)O)cc2OC)ncc1C(F)(F)F [Compound 105, 4-(4-Ethylamino-5-trifluoromethyl-pyrimidin-2-ylamino)-N-(2-hydroxy-2-methyl-propyl)-5-methoxy-2-methyl-benzamide]
0.406 | CCNc1nc(Nc2cc(F)c(C(=O)NC(C)(C)CO)cc2OC)ncc1C(F)(F)F [Compound 106, 4-(4-Ethylamino-5-trifluoromethyl-pyrimidin-2-ylamino)-2-fluoro-N-(2-hydroxy-1,1-dimethyl-ethyl)-5-methoxy-benzamide]
9.12 | CCNc1nc(Nc2cc(C)c(C(=O)N3CC[C@H](F)C3)cc2Cl)ncc1C#N [Compound 107, 2-[2-Chloro-4-((S)-3-fluoro-pyrrolidine-1-carbonyl)-5-methyl-phenylamino]-4-ethylamino-pyrimidine-5-carbonitrile]
28.9 | CCNc1nc(Nc2ccc(C(=O)N3CC[C@H](F)C3)cc2Cl)ncc1C#N [Compound 108, 2-[2-Chloro-4-((S)-3-fluoro-pyrrolidine-1-carbonyl)-phenylamino]-4-ethylamino-pyrimidine-5-carbonitrile]
1.38 | CNc1nc(Nc2cc(C)c(C(=O)N3CCOCC3)cc2OCC2CC2)ncc1C(F)(F)F [Compound 109, [5-Cyclopropylmethoxy-2-methyl-4-(4-methylamino-5-trifluoromethyl-pyrimidin-2-ylamino)-phenyl]-morpholin-4-yl-methanone]
1.64 | CNc1nc(Nc2cc(OC)c(C(=O)N3CCCCC3)cc2OCF)ncc1C(F)(F)F [Compound 110, [5-Fluoromethoxy-2-methoxy-4-(4-methylamino-5-trifluoromethyl-pyrimidin-2-ylamino)-phenyl]-piperidin-1-yl-methanone]
1.68 | CCNc1nc(Nc2cc(OCF)c(C(=O)N3CCCC3)cc2Cl)ncc1C(F)(F)F [Compound 111, [5-Chloro-4-(4-ethylamino-5-trifluoromethyl-pyrimidin-2-ylamino)-2-fluoromethoxy-phenyl]-pyrrolidin-1-yl-methanone]
0.353 | COc1cc(Nc2ncc(C(F)(F)F)c(NC3CCC3)n2)c(F)cc1C(=O)N1CCOCC1 [Compound 112, [4-(4-Cyclobutylamino-5-trifluoromethyl-pyrimidin-2-ylamino)-5-fluoro-2-methoxy-phenyl]-morpholin-4-yl-methanone]
0.326 | COc1cc(Nc2ncc(C(F)(F)F)c(NC3CCC3)n2)c(Cl)cc1C(=O)N1CCOCC1 [Compound 113, [5-Chloro-4-(4-cyclobutylamino-5-trifluoromethyl-pyrimidin-2-ylamino)-2-methoxy-phenyl]-morpholin-4-yl-methanone]
0.559 | CCNc1nc(Nc2cc(F)c(C(=O)NC3(CO)CC3)cc2OC)ncc1C(F)(F)F [Compound 114, 4-(4-Ethylamino-5-trifluoromethyl-pyrimidin-2-ylamino)-2-fluoro-N-(1-hydroxymethyl-cyclopropyl)-5-methoxy-benzamide]
0.31 | CCNc1nc(Nc2cc(F)c(C(=O)NCC3(O)CC3)cc2OC)ncc1C(F)(F)F [Compound 115, 4-(4-Ethylamino-5-trifluoromethyl-pyrimidin-2-ylamino)-2-fluoro-N-(1-hydroxy-cyclopropylmethyl)-5-methoxy-benzamide]
1.19 | CNc1nc(Nc2cc(C)c(C(=O)NCC(C)(C)O)cc2OC)ncc1C(F)(F)F [Compound 116, N-(2-Hydroxy-2-methyl-propyl)-5-methoxy-2-methyl-4-(4-methylamino-5-trifluoromethyl-pyrimidin-2-ylamino)-benzamide]
12.7 | CCNc1nc(Nc2cc(OC)c(C(=O)N3CC[C@H](F)C3)cc2Cl)ncc1C#N [Compound 117, 2-[2-Chloro-4-((S)-3-fluoro-pyrrolidine-1-carbonyl)-5-methoxy-phenylamino]-4-ethylamino-pyrimidine-5-carbonitrile]
2.76 | CCNc1nc(Nc2cc(F)c(C(=O)N3CCOCC3)cc2C)ncc1C(F)(F)F [Compound 118, [4-(4-Ethylamino-5-trifluoromethyl-pyrimidin-2-ylamino)-2-fluoro-5-methyl-phenyl]-morpholin-4-yl-methanone]
11.2 | COc1nc(Nc2cc(C)c(C(=O)N3CCCC3)cc2OCF)ncc1Cl [Compound 119, [4-(5-Chloro-4-methoxy-pyrimidin-2-ylamino)-5-fluoromethoxy-2-methyl-phenyl]-pyrrolidin-1-yl-methanone]
4.42 | CNc1nc(Nc2cc(OC)c(C(=O)N(C)C)cc2OCF)ncc1C(F)(F)F [Compound 120, 5-Fluoromethoxy-2-methoxy-N,N-dimethyl-4-(4-methylamino-5-trifluoromethyl-pyrimidin-2-ylamino)-benzamide]
3.43 | CCNc1nc(Nc2cc(OCF)c(C(=O)N3CCCC3)cc2F)ncc1C(F)(F)F [Compound 121, [4-(4-Ethylamino-5-trifluoromethyl-pyrimidin-2-ylamino)-5-fluoro-2-fluoromethoxy-phenyl]-pyrrolidin-1-yl-methanone]
2.06 | CNc1nc(Nc2cc(OC)c(C(=O)N3CCOCC3)c(OC)c2F)ncc1C(F)(F)F [Compound 122, [3-Fluoro-2,6-dimethoxy-4-(4-methylamino-5-trifluoromethyl-pyrimidin-2-ylamino)-phenyl]-morpholin-4-yl-methanone]
0.31 | [2H]C1([2H])C(Nc2nc(Nc3cc(F)c(C(=O)N4CCOCC4)cc3OC)ncc2C(F)(F)F)C1([2H])[2H] [Compound 123, (4-(4-(2,3-tetradeutero-cyclopropylamino)-5-(trifluoromethyl)pyrimidin-2-ylamino)-2-fluoro-5-methoxyphenyl)(morpholino)methanone]
4.3 | CNc1nc(Nc2cc(OC(F)(F)F)c(C(=O)N3CCOCC3)cc2OC)ncc1C(F)(F)F [Compound 124, [5-Methoxy-4-(4-methylamino-5-trifluoromethyl-pyrimidin-2-ylamino)-2-trifluoromethoxy-phenyl]-morpholin-4-yl-methanone]
0.577 | CCNc1nc(Nc2cc(OC)c(C(=O)N3CCOCC3)cc2OC)ncc1C(F)(F)F [Compound 125, [4-(4-Ethylamino-5-trifluoromethyl-pyrimidin-2-ylamino)-2,5-dimethoxy-phenyl]-morpholin-4-yl-methanone]
6.79 | CNc1nc(Nc2cc(Cl)c(C(=O)N3CCOCC3)cc2C)ncc1C(F)(F)F [Compound 126, [2-Chloro-5-methyl-4-(4-methylamino-5-trifluoromethyl-pyrimidin-2-ylamino)-phenyl]-morpholin-4-yl-methanone]
0.31 | COc1cc(C(=O)N2CCOCC2)c(C)cc1Nc1ncc(C(F)(F)F)c(NC2CCC2)n1 [Compound 129, [4-(4-Cyclobutylamino-5-trifluoromethyl-pyrimidin-2-ylamino)-5-methoxy-2-methyl-phenyl]-morpholin-4-yl-methanone]
4.74 | CNc1nc(Nc2cc(C)c(C(=O)N3CCOCC3)cc2C)ncc1C(F)(F)F [Compound 130, [2,5-Dimethyl-4-(4-methylamino-5-trifluoromethyl-pyrimidin-2-ylamino)-phenyl]-morpholin-4-yl-methanone]

Same assay, conditions: Table 6 compounds (formula II/III, fused ring)

Ki [nM] | Molecule
3.17 | [5-Chloro-2-hydroxy-4-(4-methylamino-5-trifluoromethyl-pyrimidin-2-ylamino)-phenyl]-morpholin-4-yl-methanone [Compound 10]
